From ChEMBL document CHEMBL4024706 (Eur J Med Chem, 2017)

Tests used:
[1] = target: Tyrosine-protein kinase Tec (Homo sapiens) (UniProt P42680); experiment: Inhibition of wild-type human partial length TEC (L341 to D620 residues) expressed in bacterial expression system assessed as residual activity at 1 uM by Kinomescan method relative to control
[2] = target: 5'-AMP-activated protein kinase catalytic subunit alpha-1 (Homo sapiens) (UniProt Q13131); experiment: Inhibition of wild-type human partial length AMPK alpha1 (M1 to E306 residues) expressed in bacterial expression system assessed as residual activity at 1 uM by Kinomescan method relative to control
[3] = target: Serine/threonine-protein kinase 25 (Homo sapiens) (UniProt O00506); experiment: Inhibition of wild-type human partial length YSK1 (V14 to H295 residues) expressed in bacterial expression system assessed as residual activity at 1 uM by Kinomescan method relative to control
[4] = target: Serine/threonine-protein kinase WNK2 (Homo sapiens) (UniProt Q9Y3S1); experiment: Inhibition of wild-type human partial length WNK2 (V47 to D482 residues) expressed in mammalian expression system assessed as residual activity at 1 uM by Kinomescan method relative to control
[5] = target: Ribosomal protein S6 kinase alpha-1 (Homo sapiens) (UniProt Q15418); experiment: Inhibition of wild-type human partial length N-terminal RSK1 Kinase domain 1 (M1 to E388 residues) expressed in bacterial expression system assessed as residual activity at 1 uM by Kinomescan method relative to control
Ribosomal protein S6 kinase alpha-1 (Homo sapiens), sequence (Q15418 whole entry, the tested form may be a part): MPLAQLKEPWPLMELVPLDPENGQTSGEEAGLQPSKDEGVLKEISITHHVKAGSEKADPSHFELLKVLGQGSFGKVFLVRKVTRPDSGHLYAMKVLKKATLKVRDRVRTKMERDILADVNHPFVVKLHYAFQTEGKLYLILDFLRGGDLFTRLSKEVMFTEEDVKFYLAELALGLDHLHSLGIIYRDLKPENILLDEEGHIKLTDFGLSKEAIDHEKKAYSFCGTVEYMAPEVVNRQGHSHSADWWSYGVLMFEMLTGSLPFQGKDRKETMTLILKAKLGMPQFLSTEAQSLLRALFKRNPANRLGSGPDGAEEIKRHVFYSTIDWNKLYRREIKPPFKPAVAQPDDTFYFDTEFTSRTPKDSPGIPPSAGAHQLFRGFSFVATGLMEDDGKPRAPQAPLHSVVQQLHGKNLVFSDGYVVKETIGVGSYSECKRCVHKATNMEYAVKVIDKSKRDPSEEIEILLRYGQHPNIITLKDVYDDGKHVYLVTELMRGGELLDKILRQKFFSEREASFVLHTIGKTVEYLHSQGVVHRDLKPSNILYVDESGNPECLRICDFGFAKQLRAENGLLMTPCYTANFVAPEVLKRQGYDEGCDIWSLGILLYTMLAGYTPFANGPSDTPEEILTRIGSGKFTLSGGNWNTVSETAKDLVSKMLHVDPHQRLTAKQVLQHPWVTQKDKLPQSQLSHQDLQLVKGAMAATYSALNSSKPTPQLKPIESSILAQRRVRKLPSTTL

[6] = target: Mitogen-activated protein kinase kinase kinase 1 (Homo sapiens) (UniProt Q13233); experiment: Inhibition of wild-type human partial length MAP3K1 (L1202 to W1512 residues) expressed in mammalian expression system assessed as residual activity at 1 uM by Kinomescan method relative to control
[7] = target: Cyclin-dependent kinase 14 (Homo sapiens) (UniProt O94921); experiment: Inhibition of wild-type human full length PFTK1 (M1 to H451 residues) expressed in bacterial expression system assessed as residual activity at 1 uM by Kinomescan method relative to control
Cyclin-dependent kinase 14 (Homo sapiens), sequence (O94921 whole entry, the tested form may be a part): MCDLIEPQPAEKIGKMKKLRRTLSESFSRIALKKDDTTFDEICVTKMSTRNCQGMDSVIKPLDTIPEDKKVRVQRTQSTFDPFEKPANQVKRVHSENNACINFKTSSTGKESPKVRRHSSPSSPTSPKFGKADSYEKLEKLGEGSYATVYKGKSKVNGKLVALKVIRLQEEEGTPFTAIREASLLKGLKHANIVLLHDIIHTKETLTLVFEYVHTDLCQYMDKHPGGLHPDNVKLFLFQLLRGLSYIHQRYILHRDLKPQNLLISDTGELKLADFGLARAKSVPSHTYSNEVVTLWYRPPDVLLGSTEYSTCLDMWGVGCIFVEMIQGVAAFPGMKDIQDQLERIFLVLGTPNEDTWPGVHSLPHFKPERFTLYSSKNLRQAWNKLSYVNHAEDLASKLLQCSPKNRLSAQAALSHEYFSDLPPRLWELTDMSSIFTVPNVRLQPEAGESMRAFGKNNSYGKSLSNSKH

[8] = test system: Receptor-type tyrosine-protein kinase FLT3 (Homo sapiens), P36888 [D835H]; experiment: Inhibition of human partial length FLT3 D835H mutant (V592 to Y969 residues) expressed in bacterial expression system assessed as residual activity at 1 uM by Kinomescan method relative to control
[9] = target: Serine/threonine-protein kinase Nek6 (Homo sapiens) (UniProt Q9HC98); experiment: Inhibition of wild-type human full length NEK6 (M8 to T313 residues) expressed in bacterial expression system assessed as residual activity at 1 uM by Kinomescan method relative to control
Serine/threonine-protein kinase Nek6 (Homo sapiens), sequence (Q9HC98 whole entry, the tested form may be a part): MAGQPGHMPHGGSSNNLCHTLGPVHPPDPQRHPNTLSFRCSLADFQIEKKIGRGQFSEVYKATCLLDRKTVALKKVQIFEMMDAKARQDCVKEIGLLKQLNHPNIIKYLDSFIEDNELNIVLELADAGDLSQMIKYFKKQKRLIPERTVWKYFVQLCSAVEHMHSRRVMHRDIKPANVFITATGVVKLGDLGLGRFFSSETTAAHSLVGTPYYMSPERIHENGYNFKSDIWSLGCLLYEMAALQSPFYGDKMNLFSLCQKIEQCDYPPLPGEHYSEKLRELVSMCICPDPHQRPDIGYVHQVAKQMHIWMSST

[10] = target: Bone morphogenetic protein receptor type-1B (Homo sapiens) (UniProt O00238); experiment: Inhibition of wild-type human partial length BMPR1B (D178 to L502 residues) expressed in mammalian expression system assessed as residual activity at 1 uM by Kinomescan method relative to control
[11] = target: Rhodopsin kinase GRK7 (Homo sapiens) (UniProt Q8WTQ7); experiment: Inhibition of wild-type human full length GRK7 (M1 to L553 residues) expressed in mammalian expression system assessed as residual activity at 1 uM by Kinomescan method relative to control
Rhodopsin kinase GRK7 (Homo sapiens), sequence (Q8WTQ7 whole entry, the tested form may be a part): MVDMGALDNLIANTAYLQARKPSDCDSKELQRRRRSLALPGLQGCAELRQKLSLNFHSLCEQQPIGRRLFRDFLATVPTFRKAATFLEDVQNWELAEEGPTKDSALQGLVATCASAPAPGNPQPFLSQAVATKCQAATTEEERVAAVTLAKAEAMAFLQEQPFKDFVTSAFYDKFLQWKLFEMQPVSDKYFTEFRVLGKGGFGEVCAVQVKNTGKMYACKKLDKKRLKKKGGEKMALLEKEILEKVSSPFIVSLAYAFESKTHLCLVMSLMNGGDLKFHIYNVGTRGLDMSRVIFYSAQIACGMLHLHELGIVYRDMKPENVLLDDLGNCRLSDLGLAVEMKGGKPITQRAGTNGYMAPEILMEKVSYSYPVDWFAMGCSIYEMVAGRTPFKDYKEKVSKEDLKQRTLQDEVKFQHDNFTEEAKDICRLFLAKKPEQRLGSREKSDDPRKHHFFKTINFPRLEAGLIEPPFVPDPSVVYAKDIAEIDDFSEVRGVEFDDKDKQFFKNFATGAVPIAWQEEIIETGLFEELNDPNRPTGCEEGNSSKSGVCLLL

[12] = target: Serine/threonine-protein kinase 38-like (Homo sapiens) (UniProt Q9Y2H1); experiment: Inhibition of wild-type human partial length NDR2 (N34 to E447 residues) expressed in bacterial expression system assessed as residual activity at 1 uM by Kinomescan method relative to control
[13] = target: Mitogen-activated protein kinase kinase kinase 3 (Homo sapiens) (UniProt Q99759); experiment: Inhibition of wild-type human partial length MAP3K3 (E320 to Y626 residues) expressed in mammalian expression system assessed as residual activity at 1 uM by Kinomescan method relative to control
[14] = target: Cyclin-dependent kinase 19 (Homo sapiens) (UniProt Q9BWU1); experiment: Inhibition of wild-type human partial length CDK11 (M1 to N360 residues) expressed in bacterial expression system assessed as residual activity at 1 uM by Kinomescan method relative to control
[15] = target: Mitogen-activated protein kinase kinase kinase 6 (Homo sapiens) (UniProt O95382); experiment: Inhibition of wild-type human partial length ASK2 (M278 to R972 residues) expressed in mammalian expression system assessed as residual activity at 1 uM by Kinomescan method relative to control
Mitogen-activated protein kinase kinase kinase 6 (Homo sapiens), sequence (O95382 whole entry, the tested form may be a part): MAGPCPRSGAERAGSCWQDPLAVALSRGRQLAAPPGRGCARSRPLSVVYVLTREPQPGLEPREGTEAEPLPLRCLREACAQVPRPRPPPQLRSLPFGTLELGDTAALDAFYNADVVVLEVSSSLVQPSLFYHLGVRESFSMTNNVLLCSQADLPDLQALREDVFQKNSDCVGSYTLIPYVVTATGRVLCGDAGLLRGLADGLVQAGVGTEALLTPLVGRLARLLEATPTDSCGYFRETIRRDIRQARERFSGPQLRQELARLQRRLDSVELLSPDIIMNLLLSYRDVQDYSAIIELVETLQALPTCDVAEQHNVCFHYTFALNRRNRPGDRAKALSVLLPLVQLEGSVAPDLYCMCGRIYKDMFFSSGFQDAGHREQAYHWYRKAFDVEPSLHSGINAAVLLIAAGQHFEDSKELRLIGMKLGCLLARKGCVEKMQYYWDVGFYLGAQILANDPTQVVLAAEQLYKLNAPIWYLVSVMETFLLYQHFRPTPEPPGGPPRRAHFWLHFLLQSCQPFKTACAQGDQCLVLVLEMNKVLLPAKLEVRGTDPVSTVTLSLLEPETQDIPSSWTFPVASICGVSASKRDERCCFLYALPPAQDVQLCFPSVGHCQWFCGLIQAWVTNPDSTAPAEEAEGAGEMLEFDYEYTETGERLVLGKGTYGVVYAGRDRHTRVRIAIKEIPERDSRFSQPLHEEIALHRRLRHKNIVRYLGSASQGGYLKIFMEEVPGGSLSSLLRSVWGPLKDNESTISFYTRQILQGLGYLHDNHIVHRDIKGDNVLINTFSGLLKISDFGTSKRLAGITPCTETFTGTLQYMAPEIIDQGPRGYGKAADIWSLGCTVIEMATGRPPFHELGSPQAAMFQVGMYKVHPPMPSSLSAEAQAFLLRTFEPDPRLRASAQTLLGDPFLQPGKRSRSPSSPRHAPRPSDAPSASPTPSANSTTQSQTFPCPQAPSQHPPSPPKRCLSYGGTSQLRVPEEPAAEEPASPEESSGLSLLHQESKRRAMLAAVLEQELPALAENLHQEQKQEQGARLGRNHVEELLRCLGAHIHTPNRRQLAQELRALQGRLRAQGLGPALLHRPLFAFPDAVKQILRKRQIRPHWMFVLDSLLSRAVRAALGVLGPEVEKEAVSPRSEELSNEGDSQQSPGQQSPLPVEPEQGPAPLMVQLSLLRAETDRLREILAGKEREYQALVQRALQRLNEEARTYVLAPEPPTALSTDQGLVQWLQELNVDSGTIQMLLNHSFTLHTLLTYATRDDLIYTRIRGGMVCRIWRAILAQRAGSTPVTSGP

[16] = test system: Epidermal growth factor receptor (Homo sapiens), P00533 [T790M]; experiment: Inhibition of human partial length EGFR T790M mutant (R669 to G1022 residues) expressed in mammalian expression system assessed as residual activity at 1 uM by Kinomescan method relative to control
[17] = target: Serine/threonine-protein kinase tousled-like 2 (Homo sapiens) (UniProt Q86UE8); experiment: Inhibition of wild-type human partial length TLK2 (E424 to N749 residues) expressed in bacterial expression system assessed as residual activity at 1 uM by Kinomescan method relative to control
Serine/threonine-protein kinase tousled-like 2 (Homo sapiens), sequence (Q86UE8 whole entry, looked up, the tested form may be a part): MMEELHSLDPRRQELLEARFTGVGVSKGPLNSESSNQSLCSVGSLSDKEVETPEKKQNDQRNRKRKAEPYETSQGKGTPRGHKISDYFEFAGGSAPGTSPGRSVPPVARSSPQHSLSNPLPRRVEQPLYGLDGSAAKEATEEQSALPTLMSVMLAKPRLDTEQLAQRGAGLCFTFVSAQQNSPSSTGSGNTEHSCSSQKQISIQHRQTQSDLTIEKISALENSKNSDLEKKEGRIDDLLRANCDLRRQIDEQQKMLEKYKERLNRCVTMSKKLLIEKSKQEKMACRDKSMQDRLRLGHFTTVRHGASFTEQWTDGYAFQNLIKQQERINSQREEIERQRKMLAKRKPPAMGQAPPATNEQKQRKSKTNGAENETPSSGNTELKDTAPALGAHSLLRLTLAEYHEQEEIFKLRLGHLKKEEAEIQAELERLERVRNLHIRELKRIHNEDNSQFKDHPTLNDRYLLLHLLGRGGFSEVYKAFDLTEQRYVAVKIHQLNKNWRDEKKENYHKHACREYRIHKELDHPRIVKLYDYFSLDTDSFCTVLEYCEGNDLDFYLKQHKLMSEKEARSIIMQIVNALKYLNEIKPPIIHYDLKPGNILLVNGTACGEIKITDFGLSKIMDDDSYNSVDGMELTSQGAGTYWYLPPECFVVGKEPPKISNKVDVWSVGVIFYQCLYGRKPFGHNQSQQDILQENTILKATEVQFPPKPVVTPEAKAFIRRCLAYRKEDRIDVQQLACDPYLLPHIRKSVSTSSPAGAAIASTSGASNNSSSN

[18] = target: Vascular endothelial growth factor receptor 3 (Homo sapiens) (UniProt P35916); experiment: Inhibition of wild-type human partial length FLT4 (E821 to E1196 residues) expressed in bacterial expression system assessed as residual activity at 1 uM by Kinomescan method relative to control
[19] = test system: Mast/stem cell growth factor receptor Kit (Homo sapiens), P10721 [D816V]; experiment: Inhibition of human partial length KIT D816V mutant (I571 to D952 residues) expressed in bacterial expression system assessed as residual activity at 1 uM by Kinomescan method relative to control
U2932 = experiment: Cell cycle arrest in human U2932 cells assessed as increase in accumulation at G0/G1 phase after 48 hrs by propidium iodide/RNase staining based flow cytometric method; assay type: functional
[20] = target: Mitogen-activated protein kinase kinase kinase kinase 1 (Homo sapiens) (UniProt Q92918); experiment: Inhibition of wild-type human full length HPK1 (M1 to R799 residues) expressed in bacterial expression system assessed as residual activity at 1 uM by Kinomescan method relative to control
Mitogen-activated protein kinase kinase kinase kinase 1 (Homo sapiens), sequence (Q92918 whole entry, looked up, the tested form may be a part): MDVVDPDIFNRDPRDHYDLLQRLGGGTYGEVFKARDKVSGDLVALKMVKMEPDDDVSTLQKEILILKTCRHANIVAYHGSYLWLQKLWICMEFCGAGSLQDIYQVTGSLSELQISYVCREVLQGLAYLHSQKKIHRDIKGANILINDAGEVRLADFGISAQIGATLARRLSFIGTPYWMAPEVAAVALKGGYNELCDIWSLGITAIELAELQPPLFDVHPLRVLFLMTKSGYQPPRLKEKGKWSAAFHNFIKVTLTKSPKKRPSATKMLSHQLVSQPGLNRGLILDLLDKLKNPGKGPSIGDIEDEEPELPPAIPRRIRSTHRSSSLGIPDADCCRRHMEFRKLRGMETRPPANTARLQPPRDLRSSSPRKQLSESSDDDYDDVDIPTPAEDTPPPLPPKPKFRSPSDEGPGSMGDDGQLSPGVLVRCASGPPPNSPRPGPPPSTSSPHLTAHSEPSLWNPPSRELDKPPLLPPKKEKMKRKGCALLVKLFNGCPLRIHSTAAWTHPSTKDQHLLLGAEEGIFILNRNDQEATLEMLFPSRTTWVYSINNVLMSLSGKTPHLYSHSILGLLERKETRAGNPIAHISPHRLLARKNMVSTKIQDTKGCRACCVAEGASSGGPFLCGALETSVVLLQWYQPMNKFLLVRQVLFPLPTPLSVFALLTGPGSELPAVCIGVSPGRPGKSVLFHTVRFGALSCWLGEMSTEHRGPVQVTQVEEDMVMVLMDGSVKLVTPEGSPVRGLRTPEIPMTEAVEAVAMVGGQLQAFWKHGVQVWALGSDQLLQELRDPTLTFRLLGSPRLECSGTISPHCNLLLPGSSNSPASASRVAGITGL

[21] = target: Cyclin-dependent kinase 5 (Homo sapiens) (UniProt Q00535); experiment: Inhibition of wild-type human full length CDK5 (M1 to P292 residues) expressed in bacterial expression system assessed as residual activity at 1 uM by Kinomescan method relative to control
[22] = target: Death-associated protein kinase 1 (Homo sapiens) (UniProt P53355); experiment: Inhibition of wild-type human partial length DAPK1 (M1 to F296 residues) expressed in bacterial expression system assessed as residual activity at 1 uM by Kinomescan method relative to control
[23] = target: Receptor-interacting serine/threonine-protein kinase 2 (Homo sapiens) (UniProt O43353); experiment: Inhibition of wild-type human partial length RIPK2 (M1 to K310 residues) expressed in bacterial expression system assessed as residual activity at 1 uM by Kinomescan method relative to control
[24] = target: Serine/threonine-protein kinase PRP4 homolog (Homo sapiens) (UniProt Q13523); experiment: Inhibition of wild-type human partial length PRP4 (D657 to I1007 residues) expressed in bacterial expression system assessed as residual activity at 1 uM by Kinomescan method relative to control

Molecule `C=CC(=O)Nc1cc(Nc2cc(-c3cccc(NC(=O)c4ccc(C(C)(C)C)cc4)c3C)cn(C)c2=O)ccc1C(=O)N1CCOCC1` has an Activity [1] of 95%, an Activity [2] of 89% and an Activity [3] of 96%. It also gave an Activity [4] of 99%, an Activity [5] of 87% and an Activity [6] of 91%. The Activity [7] was 93%, the Activity [8] was 100% and the Activity [9] was 98%. It also gave an Activity [10] of 100%, an Activity [11] of 94% and an Activity [12] of 100%. It also gave an Activity [13] of 100%, an Activity [14] of 100% and an Activity [15] of 95%. For the same molecule, the Activity [16] was 100%, the Activity [17] was 100% and the Activity [18] was 100%. For the same molecule, the Activity [19] was 92%, the Activity (U2932) was “Dose-dependent effect” and the Activity [20] was 100%. For the same molecule, the Activity [21] was 90%, the Activity [22] was 100% and the Activity [23] was 62%. It also gave an Activity [24] of 100%.
